# Results: patent US10018630B2, “Cancer stem cell isolation” (CHUGAI SEIYAKU KABUSHIKI KAISHA, priority 2011, dated 2018)
# What was measured:
# [1] = tested on: Lgr5-positive colon CSCs; experiment: Cell proliferation / chemosensitivity assay (Cell Counting Kit-8); assay type: cell-based, human
# Procedure: (§1) Tissues of xenograft were cut with a razor blade in order to prepare single cancer cell suspensions. After the suspensions were incubated at 37° C. for 3 hours in DPBS containing collagenase/dispase (Roche) and DNaseI (Roche), the suspensions were filtered through 40-μm Cell Strainers (BD Biosciences). The cells were suspended in the lysis buffer (BD Biosciences) to remove erythrocytes. The prepared xenograft-derived cells were cultured under 5% CO2 atmosphere at 37° C. in DMEM/F12 (Invitrogen) containing N-2 Supplement (Invitrogen), 20 ng/ml human EGF (Invitrogen), 10 ng/ml human basic fibroblast growth factor (Sigma), 4 μg/ml heparin (Sigma), 4 mg/ml BSA (Invitrogen), 20 μg/ml human insulin zinc solution (Invitrogen), and 2.9 mg/ml glucose (Sigma) (Todaro M, et al. (2007) Cell Stem Cell 1: 389-402). Adherent and floating CSCs were cultured using conventional polystyrene-treated cell culture flasks (BD Biosciences) and Ultra-low attachment cell culture flasks (Corning), respectively.
# (§2) Floating and adherent cells were plated at about 100 and 1×10^4 cells/well in 96-well plates, respectively. On days 0 and 3, viable cell counts were determined by the Cell Counting Kit-8 Assay (Doujindo) according to the manufacturer's protocol. Average absorbance on day 0 was taken as 100%. For chemosensitivity assay, floating and adherent cells were plated at about 100 and 1×10^4 cells/well in 96-well plates, respectively. […] After three days of culture in the presence of the agents, the Cell Counting Kit-8 was added to the cells. The average absorbance of cells exposed to DMSO or medium alone was taken as 100%. All experiments were performed in triplicate.
# [2] = tested on: Lgr5-negative colon CSCs; experiment: as above; assay type: cell-based, human; conditions: for proliferation and survival of Lgr5-negative colon CSCs: 10 μg/ml, three days; for resistance of Lgr5-negative CSCs (percentage of viable cells relative to non-treated control): PLR59 and PLR123, cultured three days at each concentration (FIG. 45)
# Procedure: as §1, §2
# [3] = tested on: Lgr5-positive colon CSCs; experiment: Transition of Lgr5-positive colon CSCs to the Lgr5-negative state after drug exposure (flow cytometry, immunostaining, qPCR); assay type: cell-based, human; conditions: for Lgr5 expression by IHC (antibody 2L36): adherent condition, 24 hours with drug, then 48 hours without drug; for Lgr5 state of drug-resistant cells: three-day exposure of Lgr5-positive colon CSCs
# Procedure: Colon CSCs were incubated with mouse anti-human Lgr5 antibody (2T15E-2) and then with […] rat anti-mouse IgG antibody (Invitrogen) to stain Lgr5. The aldehyde dehydrogenase activity was measured using the AldeFluor Kit (Stemcell Technologies). Mouse cells were discriminated from human colon CSCs by staining with anti-mouse MHC class I antibody (Abcam), and PE- or APC-labeled goat […] antibody (BioLegend). Dead cells were also removed using the 7-AAD Viability Dye (Beckman Coulter).
# Total RNAs were isolated using the RNeasy Mini Kit including DNAase treatment (Qiagen). cDNAs were synthesized using the First-Strand cDNA Synthesis Kit (SABiosciences). Quantitative real-time PCR (QRT-PCR) analysis was performed with the SYBR Green/Rox qPCR (SABiosciences) using the Mx3005P Real-Time PCR System (Stratagene). The fold induction value was calculated according to the 2-ΔΔCt method. GAPDH and ACTB were used as a reference. All experiments were performed in triplicate.
# For immunofluorescent cytochemistry, cells were fixed with 4% paraformaldehyde and methanol, and incubated with a mouse anti-human E-cadherin antibody (Abcam), rabbit anti-human Snail antibody (Abcam), or rabbit anti-human β-catenin antibody (Sigma)). Then, the cells were visualized using the AlexaFluor 488-labeled goat anti-mouse IgG antibody or goat anti-rabbit IgG antibody. For immunofluorescent cytochemistry, the fixed cells and thin sections derived from paraffin blocks of xenograft tumors were incubated with a mouse anti-human Lgr5 antibody (2U2E-2) or rabbit anti-human Snail antibody (Abcam), rabbit anti-human HLA-DMA antibody (Sigma), rabbit anti-TMEM173 antibody (Abcam), rabbit anti-human ZMAT3 antibody (Abcam), or rabbit anti-human GPR110 antibody (Abcam). After incubation with the primary antibody, Lgr5 protein was detected with a goat anti-mouse antibody conjugated with polymer-HRP (DAKO) and visualized with AlexaFluor 488-labeled tyramide (Invitrogen), while Snail, HLA-DMA, and TMEM173 proteins were detected with a biotinylated goat anti-rabbit antibody (VECTOR) and visualized with AlexaFluor 568-labeled streptavidin (Invitrogen). These cells and samples were also stained with DAPI (Invitrogen). ZMAT3 and GPR110 proteins were detected with a goat anti-rabbit antibody conjugated with polymer HRP (DAKO) and visualized with diaminobenzidine. The cells and samples were stained with Mayer's hematoxylin (Muto Pure Chemicals Co.).
# In addition, the present inventors carried out examinations to assess whether Lgr5-negative colon CSCs undergo a transition into an Lgr5-positive state. […] On the other hand, when Lgr5-positive adherent colon CSCs were cultured in an ultra low adherent plate, the present inventors observed that some of the cells halted their growth and formed a spheroid-like structure and that the Lgr5 mRNA level was very low (FIGS. 12 and 33). The transition from the Lgr5-positive to Lgr5-negative state (and the reverse) was also confirmed by observations using a single cell in culture. […] When single Lgr5-negative cells prepared via irinotecan treatment were individually cultured in a multi-well plate in the absence of irinotecan, 19 to 43% of the cells underwent a transition into the Lgr5-positive state within four days (FIG. 47 and Table 5).
# Lgr5-positive cells were incubated under an adherent condition in the presence of 5-FU or oxaliplatin for 24 hours, and then cultured in the absence of the drug for 48 hours. The cells were analyzed for the expression of Lgr5 by IHC using an anti-Lgr5 antibody (antibody 2L36). […] Next, Lgr5-negative cells sorted using MoFlo XDP cell sorter and treated with 5-FU or oxaliplatin were cultured for four days in the absence of the drug. The cells were analyzed for Lgr5 expression.
# [4] = tested on: tumors derived from LGR5-positive CSCs (PLR123); experiment: Irinotecan treatment of NOG mice bearing tumors derived from Lgr5-positive CSCs; assay type: in vivo
# Procedure: Mice bearing tumors derived from LGR5-positive CSCs (PLR123) were treated with irinotecan, and their tumors were observed. Irinotecan or vehicle was administered to mice at days 12, 15, and 18 after tumor grafting. Scale bar represents 25 μm.
# FIG. 53 Irinotecan was administered at a dose of 120 mg/kg/day to NOG mice at days 12, 15, and 18 after grafting tumors derived from LGR5-positive CSCs (PLR123). This figure is a graph showing tumor volumes in control mice administered with vehicle (closed diamond) and mice administered with irinotecan (closed square or triangle). Each value represents mean±standard deviation.
# FIG. 54 is a graph showing the numbers of Lgr5-positive and HLA-DMA-positive cells in xenograft tumor tissues. Thin sections of tissues were treated with Lgr5 antibody and HLA-DMA antibody, and then the numbers of Lgr5-positive and HLA-DMA-positive cells were counted. Values represent the total numbers of cells counted for respective groups (n=3).
# To probe the possibility of in vivo transition to a growth inhibitor-resistant state, irinotecan was administered at the maximum tolerated dose (MTD) (120 mg/kg) into the peritoneal cavities of NOG mice bearing tumors derived from Lgr5-positive CSCs. […] By contrast, in vehicle-treated control mice, about one third of cancer cells were positive for Lgr5 in both ductal and budding areas (FIG. 52). Both Lgr5-positive cells and HLA-DMA-positive and Lgr5-negative cells were positive for EREG, and were identified to be CSCs (FIG. 52). After irinotecan treatment, Lgr5-positive cells appeared again (FIG. 52). Furthermore, xenografts were excised from mice on day 21 after transplantation of irinotecan-treated or non-treated Lgr5-positive cells. Sections from the xenografts were double-stained with an anti-Ki67 antibody and an anti-Lgr5 antibody or an anti-HLA-DMA antibody. The result of double staining for Ki67 and Lgr5 or HLA-DMA, which is a marker for Lgr5-negative cells, also confirmed a correlation between Lgr5 expression and Ki67 staining in xenografts, similarly to the observation using in vitro cultured cells. Specifically, the Lgr5-positive cells were positive for Ki67, while the Lgr5-negative/HLA-DMA-positive cells were negative for Ki67 (FIG. 65).
# [5] = 120 mg/kg into the peritoneal cavity
compound,measurement,setting,value
"O=c1[nH]cc(F)c(=O)[nH]1 [5-FU, fluorouracil]",proliferation of Lgr5-positive colon CSCs,"[1]; 10 μg/ml, three days",significantly inhibited the proliferation
same,proliferation and survival of Lgr5-negative colon CSCs,[2],did not affect the proliferation and survival
same,resistance of Lgr5-negative CSCs (percentage of viable cells relative to non-treated control),[2],fully resistant
same,Lgr5 expression by IHC (antibody 2L36),[3],most of the Lgr5-positive cells underwent transition into the Lgr5-negative state
same,Lgr5 state of drug-resistant cells,[3],negative for Lgr5
Cc1cc([N+](=O)[O-])ccc1NS(=O)(=O)c1cc(Cl)ccc1Cl [FH535],proliferation of Lgr5-positive colon CSCs,"[1]; 50 μM, three days of culture",significantly reduced the proliferation
same,proliferation of Lgr5-negative colon CSCs,"[2]; 50 μM, three days of culture",had no effect on the proliferation
COc1cc(O)cc(O)c1C(=O)/C=C/c1ccccc1 [cardamonin],viable cell count,"[1]; 50 μM, three days of culture, Lgr5-positive colon CSCs, relative to DMSO alone",70%
same,viable cell count,"[2]; 50 μM, three days of culture, Lgr5-negative colon CSCs, relative to DMSO alone",about 50%
CCc1c2c(nc3ccc(OC(=O)N4CCC(N5CCCCC5)CC4)cc13)-c1cc3c(c(=O)n1C2)COC(=O)[C@]3(O)CC [irinotecan],tumor growth,"[4]; 120 mg/kg (MTD) into the peritoneal cavity, days 12, 15 and 18 after grafting",inhibited almost completely
same,Lgr5-positive cells in tumor,[4]; [5],dramatic decrease
same,ductal structures of tumor,[4]; [5],collapsed extensively
same,number of Lgr5-negative and HLA-DMA-positive cells in tumor,[4]; [5],increased significantly
same,proliferation of Lgr5-positive colon CSCs,"[1]; 10 μg/ml, three days",significantly inhibited the proliferation
same,proliferation and survival of Lgr5-negative colon CSCs,[2],did not affect the proliferation and survival
same,resistance of Lgr5-negative CSCs (percentage of viable cells relative to non-treated control),[2],fully resistant
same,level of Lgr5 mRNA (quantitative real-time PCR),[3]; Lgr-negative cells after irinotecan treatment (FIG. 43),almost undetectable
same,fluorescence representing Lgr5 positivity,"[3]; PLR123, before vs after irinotecan treatment (FIG. 42)",disappeared after the treatment
same,ALDH activity,[3]; after irinotecan treatment,reduced
same,Lgr5 state of single Lgr5-positive cells cultured individually,"[3]; multi-well plate, within three days after irinotecan treatment",underwent a transition into the Lgr5-negative state
same,Lgr5 state of drug-resistant cells,[3],negative for Lgr5
O=C1[O][Pt]2([NH][C@@H]3CCCC[C@H]3[NH]2)[O]C1=O [oxaliplatin],Lgr5 expression by IHC (antibody 2L36),[3],most of the Lgr5-positive cells underwent transition into the Lgr5-negative state
